Data as given in US11779582B2, “Composition for preventing or treating metastatic ovarian cancer, endometrial cancer or breast cancer” (LEMONEX INC., priority 2017, dated 2023).

Tests used:
Type in all cases: cell-based
[1] = system: monolayer cultured SKOV3ip1 ovarian cancer cells; assay: crystal violet cell viability, 2D monolayer culture
Procedure: 2D monolayer culture was implemented in the following manner: cells were cultured at 37° C., 5% CO2 humidified atmosphere using RPMI 1640 medium (Corning, NY, USA) supplemented with 10% fetal bovine serum (Gibco, NY, USA) and 10 U/ml penicillin/streptomycin.
Crystal violet staining was implemented to determine the cell viability in the monolayer cultured cell model and sphere cultured cell model. In order to implement the crystal violet staining in the monolayer culture model, SKOV3ip1 cells (5×10^4) were dispensed in commercial 24-well plates and incubated overnight. Thereafter, the drug was dispensed with a desired concentration for experiment into each well, followed by further incubation for 72 hours. 300 μl of 0.2% crystal violet solution was added to each well, followed by further incubation for 20 minutes while gently stirring the same. The stained cells were washed with distilled water until a clean background is observed. For assessment using a colorimeter, the crystal violet dye was extracted with 1% SDS/PBS and absorbance was measured at 570 nm wavelength by EMax PLUS microplate reader (Molecular Device, USA).
The monolayer cultured or sphere cultured SKOV3ip1 cells were treated with the tyrosine kinase inhibitor and paclitaxel for 72 hours, the cell viability was determined by the crystal violet colorimeter, and results thereof are shown in FIG. 3.

[2] = system: sphere cultured SKOV3ip1 cells; assay: microscopic observation of aggregated (spheroid) form; details: 5 μM BGJ398, 3 μM TAE648, 5 μM imatinib (FIG. 5)
Procedure: For 3D sphere culture, SKOV3ip1 cells (1×10^6) were dispensed on ultra-low adherent 6-well plate (Corning NY, USA), and then, cultured in 5% CO2 incubator using RPMI 1640 medium supplemented with 10% fetal bovine serum (Gibco, NY, USA) and 10 U/ml penicillin/streptomycin (Gibco).

[3] = system: SKOV3-TR ovarian cancer cells; assay: crystal violet cell viability in paclitaxel-resistant cells
Procedure: SKOV3-TR cell line was offered from Sood AK in MD-Anderson Cancer Center (USA) and then used in the present experiments.
Paclitaxel resistance of each of SKOV3 and SKOV3-TR was determined by measuring the cell viability through crystal violet colorimetric assay. This experiment was implemented three times and a difference in results thereof was estimated by student's t-test.
(§1) According to the same procedures as described in the previous examples, each cell line was divided and cultured by 2D monolayer culture and 3D sphere culture, respectively. Then, a change due to administration of BGJ398 alone or in combination with paclitaxel was analyzed through morphological analysis and crystal violet staining assay.

[4] = system: SKOV3-TR ovarian cancer cells; assay: microscopic analysis of cell shape change due to cytotoxicity
Procedure: as §1
FIG. 20 illustrates a change in cell shape due to cytotoxicity under microscopic analysis, when paclitaxel alone, BGJ398 alone or in combination with paclitaxel was administered to SKOV3-TR ovarian cancer cells.

[5] = system: SKOV3ip1-TR ovarian cancer cells; assay: microscopic analysis of cell shape change; details: BGJ398 in combination with paclitaxel (FIG. 21)
Procedure: FIG. 21 illustrates a change in cell shape, when paclitaxel alone, BGJ398 alone or in combination with […] was administered to the SKOV3ip1-TR ovarian cancer cells.

[6] = system: phosphorylated AKT and XIAP in SKOV3-TR ovarian cancer cells; assay: immunostaining of AKT down-signal mechanism; details: BGJ398 treatment, paclitaxel alone or in combination with BGJ398 (FIG. 27)
Procedure: FIG. 27 illustrates results of identifying whether there is expression of AKT, phosphorylated AKT, BAD, phosphorylated BAD, XIAP, CASP9, p42/44 and/or phosphorylated p42/44, in order to determine AKT down-signal mechanism in relation to cell survival and cell apoptosis in the cells when paclitaxel alone or in combination with BGJ398 was administered to SKOV3-TR ovarian cancer cells. […] The reason of this fact is considered because a level of XIAP expression in the cells is decreased thus to improve paclitaxel sensitivity.

SKOV3-TR = assay: crystal violet staining assay, cisplatin and BGJ398, 2D culture; details: BGJ398 in combination with cisplatin (FIGS. 30 and 31)
Procedure: (§2) According to the same procedures as described in the previous examples, each cell line was subjected to 2D culture and a change thereof upon administration of cisplatin alone, BGJ398 alone or in combination with cisplatin was analyzed through crystal violet staining assay.

SKOV3ip1 = assay: as above; details: SKOV3ip1, BGJ398 in combination with cisplatin (FIGS. 30 and 31)
Procedure: as §2

CCN1CCN(c2ccc(Nc3cc(N(C)C(=O)Nc4c(Cl)c(OC)cc(OC)c4Cl)ncn3)cc2)CC1 [BGJ398, 3-(2,6-dichloro-3,5-dimethoxyphenyl)-1-[6-[4-(4-ethylpiperazin-1yl)anilino]pyrimidin-4-yl]-1-methylurea] was tested. Which cell viability ([1]; monolayer cultured SKOV3ip1, 72 hours, different concentrations, crystal violet colorimeter (FIG. 3)) did it give?
The cell viability was “not effected”.

What about the cytotoxicity ([1]; monolayer cultured SKOV3ip1, BGJ398 concentration increased to 5 μM) of the same compound?
The cytotoxicity was “cytotoxicity was not revealed”.

And the “aggregated (spheroid) form of cells” value [2]?
Its value is “did not retain a normal coagulation state”.

What about the anticancer activity ([3]; BGJ398 at increasing concentration in combination with paclitaxel (FIG. 18)) of the same compound?
Its anticancer activity is “higher anticancer activity with the increased concentration of BGJ398”.

What about the anticancer activity ([3]; BGJ398 in combination with paclitaxel at increasing concentration (FIG. 19)) of the same compound?
The anticancer activity was “higher anticancer activity with the increased concentration of paclitaxel”.

And the anticancer activity ([3]; BGJ398 in combination with paclitaxel vs paclitaxel alone (FIG. 16))?
The anticancer activity was “significantly improved”.

And the anticancer activity ([3]; BGJ398 in combination with paclitaxel, 2D monolayer culture and 3D sphere culture (FIG. 17))?
Its anticancer activity is “more improved”.

What about the “cytotoxicity and morphological change” value ([4]; 2.5 μM BGJ398 in combination with 50 nM paclitaxel (FIG. 20)) of the same compound?
The value was “a detachment phenomenon due to cytotoxicity and formation of cells in irregular shapes”.

And the “cytotoxicity and morphological change” value ([4]; single agent: 2.5 μM BGJ398 or 50 nM paclitaxel (FIG. 20))?
Its value is “negligible cytotoxicity and no morphological change”.

And the “paclitaxel resistance / anticancer activity (cell shape)” value [5]?
Its value is “can block paclitaxel resistance, thereby increasing anticancer activity”.

And the XIAP expression [6]?
The XIAP expression was “XIAP expression is reduced”.

What about the “level of phosphorylated AKT” value [6] of the same compound?
Its value is “significantly decreased”.

And the anticancer activity (SKOV3-TR)?
Its anticancer activity is “anticancer activity is improved”.

And the anticancer activity (SKOV3ip1)?
The anticancer activity was “anticancer activity is improved”.
